Key:
FKBP12^F36V = FKBP12^F36V (Homo sapiens, UniProt P62942, F37V); conditions: cited from earlier work
HTN-CK2α [1] = biological target: T1, HTN-CK2α (Homo sapiens, UniProt P68400); assay: Immunoblot of HTN-CK2α O-GlcNAcylation in HEK293T cells co-expressing fOGT; type: cell-based; conditions: co-treated with OGTAC-1
Description: Ck2α is a well-studied OGT substrate.^17,25 Its Ser347 is conservatively O-GlcNAcylated and this modification was reported to affect its kinase activity.^16,17 We first co-expressed HTN-Ck2α and fOGT in HEK293T cells at different ratio and found the basal O-GlcNAcylation level of HTN-Ck2α was higher than what we detected in the case of HTN-BRD4. Therefore, a lower ratio of fOGT expression (1:100) was selected for the assessment of OGTAC potency (FIG. 9). […] The induction of specific O-GlcNAcylation on HTN-Ck2α was further confirmed by mass-shift assay. […] To validate the direct binding to both fOGT and HTN-Ck2α is critical, we exploited AP 1867 and rhodamine ligand, which bind to fOGT and HTN-Ck2α respectively, to co-treat with OGTAC-1.
During immunoblotting study, we noticed that even for whole cell lysate (WCL), RL2 antibody band (green) and HTN-CK2α protein band (red) are perfectly overlapped and clearly distinguishable from other bands on blot (FIG. 6B). We assessed the OGTAC treatment effects by quantifying the RL2 signal that is overlapping with HTN-Ck2α in WCL, and found they are corresponding with the results achieved by IP-WB method (FIG. 6C). Therefore, we quantify the intensity of RL2 band that overlapping with HTN-CK2α level instead of IP CK2α in later study.
For each IP reaction, 2.2×10^6 HEK293T cells were seed in 10 cm dish. After cells attached, transfection reagents and plasmids were prepared and added in DMEM. After 24 h transfection, media were replaced by fresh warm complete media with DMSO or probes. For washout study, after 4 h treatment, media with DMSO or OGTAC-4 (500 nM) were replaced by fresh media with DMSO or AP1867 (50 μM) for further incubation. After certain time of OGTACs treatment, cells were collected by cold PBS and lysed by 200 μL complete IP lysis buffer. The lysate was incubated on ice for 20 min, spun down at 14,000 RPM at 4° C. for 15 mins, and the supernatant were collected for bicinchoninic acid (BCA) assay and normalized to a final 2 mg/mL. For input, 20 μL of diluted sample was reacted with equal volume of 10 μM TMR ligand in IP lysis buffer and rotate gently at RT for 15 mins. The remaining samples were subjected to protein A/G magnetic beads (MedChemExpress, HY-K0202), which pre-binding with protein target protein antibody. For samples for LC-MS/MS or HTN-BRD4 mutant constructs. Halo-Trap Magnetic Agarose (Proteintech, otma) was used to incubate with protein lysates. After gentle rotation at 4° C. for at least 16 h, the beads were washed with IP lysis buffer and boiled in 40 μL 2×SDS-loading buffer (Biorad #1610747) for 5 mins to elute proteins from beads. Eluted samples were directly subjected into WB analysis. To get stronger signal of RL2, we used anti-mouse-HRP (Cell signaling, #7076) as secondary antibody for RL2 and anti-rabbit-DyLight 488 (Invitrogen, #35552) as secondary antibody for total target proteins.
In general, cells (from 12 well plate) were lysed by 80 μl RIPA lysis buffer (Thermo Scientic 89901) supplemented with 20 μM OGA inhibitor (Thaimet G, Bidepharm BD571819) and 100X protease inhibitor (MedChemExpress, HY-K0010), incubated on ice for 20 min, spun down at 14,000 RPM at 4° C. for 15 mins, and the supernatant were collected for bicinchoninic acid (BCA) assay and normalizedeto a final 2 mg/mL concentration. About 30 μg of protein samples were loaded for sodium dodecyl sulfatepolyacrylamide gel electrophoresis (SDS-PADE) and blotted with indicated antibodies.
Target sequence in this assay (P68400 with tags, fused parts or gaps): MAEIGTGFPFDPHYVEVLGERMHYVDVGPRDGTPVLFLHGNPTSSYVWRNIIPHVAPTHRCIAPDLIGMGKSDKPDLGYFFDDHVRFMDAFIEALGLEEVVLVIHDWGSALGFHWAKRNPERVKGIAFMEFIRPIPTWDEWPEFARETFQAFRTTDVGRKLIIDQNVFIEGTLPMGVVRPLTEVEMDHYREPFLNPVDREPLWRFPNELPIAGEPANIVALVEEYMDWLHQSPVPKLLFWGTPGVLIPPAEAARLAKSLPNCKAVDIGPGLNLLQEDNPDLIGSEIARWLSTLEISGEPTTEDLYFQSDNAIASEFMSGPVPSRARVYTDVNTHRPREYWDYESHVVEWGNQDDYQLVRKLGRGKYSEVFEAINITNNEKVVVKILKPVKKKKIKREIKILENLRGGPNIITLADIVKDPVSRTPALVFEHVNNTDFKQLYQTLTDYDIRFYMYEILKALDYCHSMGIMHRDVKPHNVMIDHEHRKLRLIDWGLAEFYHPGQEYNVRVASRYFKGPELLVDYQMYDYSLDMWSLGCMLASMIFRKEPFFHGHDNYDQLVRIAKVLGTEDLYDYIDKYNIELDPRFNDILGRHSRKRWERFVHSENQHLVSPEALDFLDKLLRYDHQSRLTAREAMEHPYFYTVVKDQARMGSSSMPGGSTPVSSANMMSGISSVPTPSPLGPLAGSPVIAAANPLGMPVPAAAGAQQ
Target sequence in this assay (P62942+O15294 fused P62942:F37V partner): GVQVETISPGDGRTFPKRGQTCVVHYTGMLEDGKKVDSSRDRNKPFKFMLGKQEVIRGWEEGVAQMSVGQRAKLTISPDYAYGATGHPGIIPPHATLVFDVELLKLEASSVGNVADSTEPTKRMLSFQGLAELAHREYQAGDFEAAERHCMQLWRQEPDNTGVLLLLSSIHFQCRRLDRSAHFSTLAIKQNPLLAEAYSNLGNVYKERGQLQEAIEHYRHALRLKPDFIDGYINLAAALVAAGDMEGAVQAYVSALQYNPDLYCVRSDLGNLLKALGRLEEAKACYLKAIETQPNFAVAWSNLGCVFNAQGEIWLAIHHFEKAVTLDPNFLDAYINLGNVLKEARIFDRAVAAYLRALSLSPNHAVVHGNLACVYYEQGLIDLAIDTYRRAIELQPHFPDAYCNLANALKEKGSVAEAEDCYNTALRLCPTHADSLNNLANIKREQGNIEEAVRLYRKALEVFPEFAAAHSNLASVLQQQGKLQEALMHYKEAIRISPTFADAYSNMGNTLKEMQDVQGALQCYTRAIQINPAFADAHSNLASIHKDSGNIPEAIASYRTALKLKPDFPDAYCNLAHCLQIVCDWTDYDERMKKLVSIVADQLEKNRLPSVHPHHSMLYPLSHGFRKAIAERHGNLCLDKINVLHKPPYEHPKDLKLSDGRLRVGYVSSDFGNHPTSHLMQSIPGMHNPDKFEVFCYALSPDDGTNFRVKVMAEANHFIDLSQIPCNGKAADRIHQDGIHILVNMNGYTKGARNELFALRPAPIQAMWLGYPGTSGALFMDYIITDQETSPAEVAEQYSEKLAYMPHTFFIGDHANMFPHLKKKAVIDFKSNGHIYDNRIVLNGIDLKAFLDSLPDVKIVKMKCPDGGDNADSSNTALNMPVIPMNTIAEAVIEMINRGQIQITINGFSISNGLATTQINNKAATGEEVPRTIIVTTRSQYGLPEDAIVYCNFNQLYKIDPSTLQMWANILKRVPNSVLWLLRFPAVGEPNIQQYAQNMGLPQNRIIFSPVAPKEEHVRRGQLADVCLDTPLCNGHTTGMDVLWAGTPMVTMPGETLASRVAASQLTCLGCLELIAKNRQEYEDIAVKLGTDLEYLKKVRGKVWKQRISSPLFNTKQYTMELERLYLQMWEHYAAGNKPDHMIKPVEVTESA

HTN-BRD4 and 0tfOGT = biological target: T2, HTN-BRD4 and 0tfOGT (Homo sapiens, UniProt O60885+P62942, F37V); assay: Washout / reversibility study, HTN-BRD4:0tfOGT; type: cell-based; conditions: AP1867 50 μM after OGTAC-4 500 nM 4 h
T2 construct: HaloTag fragment; 0TPR(463-1046)-; expressed in transfected cells; host or cells: HEK293T
T2 sequence (P62942 whole entry F37V, stated change not applied, other chains not shown, the tested form may be a part): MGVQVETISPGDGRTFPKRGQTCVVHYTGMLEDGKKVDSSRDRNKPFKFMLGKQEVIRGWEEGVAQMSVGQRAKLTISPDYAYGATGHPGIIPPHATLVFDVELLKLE
Method: FIGS. 7A-7E: Specificity and reversibility of OGTAC strategy. […] (B), Constructs of fOGT with 13.5 (rounded to 13) TPR and 0TPR-fOGT (0tfOGT). (C). […] (D), Dose-dependent O-GlcNAcylation profile of HTN-BRD4 by OGTAC-4 treatment. HEK293T cells expressing HTN-BRD4:0tfOGT=1:0.05 were treated with an increasing concentration of OGTAC-4 for 4 h. Then, the O-GlcNAcylation level of HTN-BRD4 was assessed by immunoblot after IP using BRD4 antibody. All quantifications are shown as mean±s.e.m. of n=3 biologically independent experiments. (E), Reversible effect of OGTAC-4 on HTN-BRD4 can be achieved by addition of AP1867. HEK293T cells expressing HTN-BRD4:0tfOGT=1:0.05 were pretreated with OGTAC-4 (500 nM) or DMSO for 4 h, and culturing media were replaced by fresh media with DMSO or AP1867 (50 μM) for the indicated time. The quantifications in right panel were conducted by the normalizing the fold-change (OGTAC-4/DMSO) for each post-washout time point to the value of 4 h pre-treatment. All quantifications are shown as mean±s.e.m. of 3 independent biological repeats. Statistical significance was calculated with ordinary one-way ANOVA comparing samples with different transfection conditions or OGTAC-treatment. ns, p≥0.05; *p<0.05; **p<0.01; ***p<0.001; ****p<0.0001.
To assess the potential application of our OGTAC strategy in downstream biological studies, we investigated the reversibility of OGTACs. […] Additionally. the O-GlcNAc level of BRD4 returned to baseline after 6 hours of AP1867 treatment, confirming the reversibility of the induction effect (FIG. 7E).
For each IP reaction, 2.2×10^6 HEK293T cells were seed in 10 cm dish. After cells attached, transfection reagents and plasmids were prepared and added in DMEM. After 24 h transfection, media were replaced by fresh warm complete media with DMSO or probes. For washout study, after 4 h treatment, media with DMSO or OGTAC-4 (500 nM) were replaced by fresh media with DMSO or AP1867 (50 μM) for further incubation. After certain time of OGTACs treatment, cells were collected by cold PBS and lysed by 200 μL complete IP lysis buffer. […]

[2] = tested on: HTN-BRD4 covalently linked to OGTAC-1
HTN-CK2α [3] = biological target: T1, HTN-CK2α; assay: O-GlcNAcylation of HTN-CK2α with 0tfOGT; type: cell-based; parameters: 0TPR(463-1046)-; expressed in transfected cells
Method: FIGS. 18A and 18B: Immunoblotting analysis of the global O-GlcNAcylation inducing effect of truncated OGTAC-4 and OGTAC-1 on HTN-BRD4 and HTN-CK2α respectively. (A), O-GlcNAcylation inducing effect of OGTAC-4 is dependent on the expression of 0tfOGT. […] The quantification was conducted by immunoblot signal of probe treatment/control as the mean±s.e.m. of n=2 biologically independent experiments. TR, transfection reagent.
Target sequence in this assay (P68400 with tags, fused parts or gaps): as the sequence (P68400 with tags, fused parts or gaps) above
Target sequence in this assay (P62942+O15294 fused P62942:F37V partner): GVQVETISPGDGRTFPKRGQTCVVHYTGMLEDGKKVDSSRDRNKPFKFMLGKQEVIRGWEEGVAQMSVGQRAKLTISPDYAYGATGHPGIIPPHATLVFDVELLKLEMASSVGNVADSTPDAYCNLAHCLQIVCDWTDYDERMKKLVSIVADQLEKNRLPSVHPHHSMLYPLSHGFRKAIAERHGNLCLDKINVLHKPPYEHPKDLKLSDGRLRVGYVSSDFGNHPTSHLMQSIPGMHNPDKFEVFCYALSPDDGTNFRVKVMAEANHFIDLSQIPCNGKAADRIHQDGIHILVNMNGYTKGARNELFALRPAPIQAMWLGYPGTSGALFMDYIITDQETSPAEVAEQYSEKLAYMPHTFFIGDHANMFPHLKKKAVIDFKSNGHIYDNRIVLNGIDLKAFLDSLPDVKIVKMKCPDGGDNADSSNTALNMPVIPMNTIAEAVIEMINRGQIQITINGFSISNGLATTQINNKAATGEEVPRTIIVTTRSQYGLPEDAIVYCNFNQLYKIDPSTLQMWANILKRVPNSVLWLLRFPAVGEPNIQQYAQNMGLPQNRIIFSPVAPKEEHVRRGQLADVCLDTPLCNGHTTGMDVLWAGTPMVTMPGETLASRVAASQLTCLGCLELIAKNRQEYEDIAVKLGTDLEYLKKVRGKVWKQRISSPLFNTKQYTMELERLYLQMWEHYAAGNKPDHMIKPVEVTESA

FKBP12^F36V, sequence (P62942 whole entry F37V): as the sequence (P62942 whole entry F37V, stated change not applied, other chains not shown, the tested form may be a part) above

CC[C@H](C(=O)N1CCCC[C@H]1C(=O)O[C@H](CCc1ccc(OC)c(OC)c1)c1cccc(OCC(=O)O)c1)c1cc(OC)c(OC)c(OC)c1 [AP1867, 2-[3-[(1R)-3-(3,4-dimethoxyphenyl)-1-[(2S)-1-[(2S)-2-(3,4,5-trimethoxyphenyl)butanoyl]piperidine-2-carbonyl]oxy-propyl]phenoxy]acetic acid]
Kd (FKBP12^F36V): 1.8 nM
effect of competitor co-treatment on OGTAC-1 induced HTN-CK2α O-GlcNAcylation (HTN-CK2α [1]): abolished the O-GlcNAcylation inducing effects
time for O-GlcNAc level of BRD4 to return to baseline (HTN-BRD4 and 0tfOGT): 6 h
time to marked decrease in ternary complex formation (HTN-BRD4 and 0tfOGT): ≤ 2 h

FKBP12^F36V fused-OGT
RL2 signal of BRD4 (O-GlcNAcylation of HTN-BRD4, IP-immunoblot) after 2 h of OGTAC-1 640 nM [2]: 2.5-fold increase at 2 h
RL2 signal of BRD4 (O-GlcNAcylation of HTN-BRD4, IP-immunoblot) after 4 h of OGTAC-1 640 nM [2]: further escalated to around 2.8-fold at 4 h

CN(C)c1ccc2c(-c3cc(C(=O)NCCOCCOCCCCCCCl)ccc3C(=O)[O-])c3ccc(=[N+](C)C)cc-3oc2c1 [rhodamine ligand, 4-((2-(2-((6-chlorohexyl)oxy)ethoxy)ethyl)carbamoyl)-2-(6-(dimethylamino)-3-(dimethyliminio)-3H-xanthen-9-yl)benzoate, reference compound]
effect of competitor co-treatment on OGTAC-1 induced HTN-CK2α O-GlcNAcylation (HTN-CK2α [1]): abolished the O-GlcNAcylation inducing effects

CCCCCCOCCOCCNC(=O)COc1cccc([C@@H](CCc2ccc(OC)c(OC)c2)OC(=O)[C@@H]2CCCCN2C(=O)[C@@H](CC)c2cc(OC)c(OC)c(OC)c2)c1 [OGTAC-1H, (R)-3-(3,4-dimethoxyphenyl)-1-(3-(2-((2-(2-(hexyloxy)ethoxy)ethyl)amino)-2-oxoethoxy)phenyl)propyl(S)-1-((S)-2-(3,4,5-trimethoxyphenyl)butanoyl)piperidine-2-carboxylate]
recruitment of 0tfOGT to HTN-CK2α (HTN-CK2α [3]): unable to recruit 0tfOGT to HTN-CK2α

— patent US20250035641A1, “COMPOSITIONS AND METHODS RELATED TO PROTEIN LABELING” (The Chinese University of Hong Kong, priority 2023, published 2025)
